Laboratory results reported in US20230374015A1, “INHIBITORS OF FIBROBLAST GROWTH FACTOR RECEPTOR KINASES” (Kinnate Biopharma Inc., priority 2020, published 2023).

biological target: FGFR2 (Homo sapiens, UniProt P21802); assay: FGFR2 Kinase Protocol - Condition 1 (Reaction Biology HotSpot radiometric kinase assay); format: biochemical; conditions: 20-min incubation of compound with kinase before ATP; poly[Glu:Tyr] (4:1) 0.2 mg/ml; ATP 100 micromolar; 2 hr room temperature
Experimental: Example 1: FGFR2 Kinase Protocol—Condition 1
The Reaction Biology HotSpot assay platform (http://www.reactionbiology.com) was used to measure kinase/inhibitor interactions as described previously (Anastassiadis et al., 2011). In brief, for each reaction, kinase and substrate were mixed in a buffer containing 20 mM HEPES (pH 7.5), 10 mM MgCl2, 1 mM EGTA, 0.02% Brij35, 0.02 mg/mL BSA, 0.1 mM Na3VO4, 2 mM DTT, and 1% DMSO. All compounds were in powder form and freshly solubilized in DMSO for assays. Compounds were then added to each reaction mixture via acoustic dispense using an ECHO 550 nanoliter dispenser. For Human FGFR2 wildtype testing, a peptide substrate, poly[Glu:Tyr] (4:1) was used to promote the reaction at a concentration of 0.2 mg/ml. For Human FGFR2 (V564F) testing, a peptide substrate, poly[Glu:Tyr] (4:1) was used to promote the reaction at a concentration of 0.2 mg/ml. ATP concentration for all assays was maintained at 100 micromolar. Compounds were tested in 10-dose IC50 mode with a 3-fold serial dilution. After a 20-min incubation, ATP (Sigma-Aldrich, St. Louis, MO 63178) and [g33P] ATP (specific activity 10 microCi/microliter) purchased at PerkinElmer (Boston, MA, 02118 Cat #BLU 003H250UC) were added at a final total concentration of […]. Reactions were carried out at room temperature for 2 hr and spotted onto P81 ion exchange cellulose chromatography paper (Reaction Biology). Filter paper was washed in 0.75% phosphoric acid to remove unincorporated ATP. The percent remaining kinase activity relative to a vehicle-containing (DMSO) kinase reaction was calculated for each kinase/inhibitor pair. IC50 values were calculated using Dotmatics Knowledge Solutions Studies curve fitting (Dotmatics, Bishops Stortford, UK, CM23).

Chain of FGFR2 (P21802 22-821): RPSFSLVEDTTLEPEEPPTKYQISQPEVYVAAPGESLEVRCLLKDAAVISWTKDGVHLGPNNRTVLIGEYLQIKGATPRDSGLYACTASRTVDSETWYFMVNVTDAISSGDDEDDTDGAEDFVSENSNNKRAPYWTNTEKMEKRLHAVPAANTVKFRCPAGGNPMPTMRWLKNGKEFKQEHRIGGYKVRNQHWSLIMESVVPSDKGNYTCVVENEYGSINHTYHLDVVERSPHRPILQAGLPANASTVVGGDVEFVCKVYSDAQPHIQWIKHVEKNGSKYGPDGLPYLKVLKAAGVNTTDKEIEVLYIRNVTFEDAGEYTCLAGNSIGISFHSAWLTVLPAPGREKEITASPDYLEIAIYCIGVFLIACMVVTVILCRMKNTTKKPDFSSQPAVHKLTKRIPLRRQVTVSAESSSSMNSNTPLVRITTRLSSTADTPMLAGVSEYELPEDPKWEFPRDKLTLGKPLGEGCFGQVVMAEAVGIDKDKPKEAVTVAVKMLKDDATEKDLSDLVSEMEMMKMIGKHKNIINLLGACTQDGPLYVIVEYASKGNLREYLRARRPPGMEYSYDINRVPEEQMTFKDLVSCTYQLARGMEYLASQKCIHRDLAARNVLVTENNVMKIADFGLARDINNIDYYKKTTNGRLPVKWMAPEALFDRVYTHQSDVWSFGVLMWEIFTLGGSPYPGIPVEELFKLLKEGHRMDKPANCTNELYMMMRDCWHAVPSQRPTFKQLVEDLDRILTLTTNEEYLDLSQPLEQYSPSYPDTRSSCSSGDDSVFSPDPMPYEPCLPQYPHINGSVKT

IC50, ≤ 100 nM:
C=CC(=O)N1CC[C@H](n2cc(C#Cc3ccc4[nH]c(C)nc4c3)c3c(N)ncnc32)C1 [Example 11, (S)-1-(3-(4-amino-5-((2-methyl-1H-benzo[d]imidazol-5-yl)ethynyl)-7H-pyrrolo[2,3-d]pyrimidin-7-yl)pyrrolidin-1-yl)prop-2-en-1-one]
C=CC(=O)N1C[C@@H](n2nc(C#Cc3c(F)cc4nc(C)n(C)c4c3F)c3c(N)ncnc32)C[C@@H]1COC [Example 13, 1-((2R,4S)-4-(4-amino-3-((5,7-difluoro-1,2-dimethyl-1H-benzo[d]imidazol-6-yl)ethynyl)-1H-pyrazolo[3,4-d]pyrimidin-1-yl)-2-(methoxymethyl)pyrrolidin-1-yl)prop-2-en-1-one]
C=CC(=O)N1C[C@@H](n2nc(C#Cc3ccc4cn[nH]c4c3)c3c(N)ncnc32)C[C@@H]1COC [Example 14, 1-((2R,4S)-4-(3-((1H-indazol-6-yl)ethynyl)-4-amino-1H-pyrazolo[3,4-d]pyrimidin-1-yl)-2-(methoxymethyl)pyrrolidin-1-yl)prop-2-en-1-one]
C=CC(=O)N1C[C@@H](n2nc(C#Cc3ccc4c(c3)nc(C)n4C3CC3)c3c(N)ncnc32)C[C@@H]1COC [Example 15, 1-((2R,4S)-4-(4-amino-3-((1-cyclopropyl-2-methyl-1H-benzo[d]imidazol-5-yl)ethynyl)-1H-pyrazolo[3,4-d]pyrimidin-1-yl)-2-(methoxymethyl)pyrrolidin-1-yl)prop-2-en-1-one]
C=CC(=O)N1C[C@@H](n2nc(C#Cc3ccc4c(c3)nc(C)n4C3CC3)c3c(N)nccc32)C[C@@H]1COC [Example 17, 1-((2R,4S)-4-(4-amino-3-((1-cyclopropyl-2-methyl-1H-benzo[d]imidazol-5-yl)ethynyl)-1H-pyrazolo[4,3-c]pyridin-1-yl)-2-(methoxymethyl)pyrrolidin-1-yl)prop-2-en-1-one]
C=CC(=O)N1C[C@@H](n2nc(C#Cc3c(F)cc4nc(C)[nH]c4c3F)c3c(N)nccc32)C[C@@H]1COC [Example 18, 1-((2R,4S)-4-(4-amino-3-((5,7-difluoro-2-methyl-1H-benzo[d]imidazol-6-yl)ethynyl)-1H-pyrazolo[4,3-c]pyridin-1-yl)-2-(methoxymethyl)pyrrolidin-1-yl)prop-2-en-1-one]
C=CC(=O)N1C[C@@H](n2nc(C#Cc3ccc4c(c3)ncn4C)c3c(N)nccc32)C[C@@H]1COC [Example 19, 1-((2R,4S)-4-(4-amino-3-((1-methyl-1H-benzo[d]imidazol-5-yl)ethynyl)-1H-pyrazolo[4,3-c]pyridin-1-yl)-2-(methoxymethyl)pyrrolidin-1-yl)prop-2-en-1-one]
C=CC(=O)N1C[C@@H](n2nc(C#Cc3ccc4c(c3)nc(C)n4CC)c3c(N)ncnc32)C[C@@H]1COC [Example 20, 1-((2R,4S)-4-(4-amino-3-((1-ethyl-2-methyl-1H-benzo[d]imidazol-5-yl)ethynyl)-1H-pyrazolo[3,4-d]pyrimidin-1-yl)-2-(methoxymethyl)pyrrolidin-1-yl)prop-2-en-1-one]
C=CC(=O)N1C[C@@H](n2nc(C#Cc3ccc4c(c3)nc(C)n4CC)c3c(N)nccc32)C[C@@H]1COC [Example 21, 1-((2R,4S)-4-(4-amino-3-((1-ethyl-2-methyl-1H-benzo[d]imidazol-5-yl)ethynyl)-1H-pyrazolo[4,3-c]pyridin-1-yl)-2-(methoxymethyl)pyrrolidin-1-yl)prop-2-en-1-one]
C=CC(=O)N1C[C@@H](n2nc(C#Cc3ccc4[nH]c(C)nc4c3)c3c(N)nccc32)C[C@@H]1COC [Example 22, 1-((2R,4S)-4-(4-amino-3-((2-methyl-1H-benzo[d]imidazol-5-yl)ethynyl)-1H-pyrazolo[4,3-c]pyridin-1-yl)-2-(methoxymethyl)pyrrolidin-1-yl)prop-2-en-1-one]
